# According to the OPERA property sets (Mansouri et al. 2018):
SMILES,boiling point,log10 biodegradation half-life (days),log10 vapour pressure (mmHg),melting point,log10 Henry constant (atm·m³/mol),log10 Koa,ready biodegradability,log10 Koc (L/kg)
CCc1ccc(C)cc1C,188 °C,0.602,-0.0685,-62.9 °C,,,,
CN(C)C=O,153 °C,,0.588,-60.4 °C,-7.13,4.38,readily biodegradable,
CC1(C)O[C@@H]2C[C@H]3[C@@H]4C[C@H](F)C5=CC(=O)C=C[C@]5(C)[C@@]4(F)[C@@H](O)C[C@]3(C)[C@]2(C(=O)CO)O1,,,,266 °C,,,,
CCCCCCC(C)(C)C,155 °C,,,,,,,
CCCCC=O,103 °C,,1.42,-91.5 °C,-3.83,,,
CCC=CCC(=O)O,208 °C,,,12 °C,,,,
CN(C)C(=S)SC(=S)N(C)C,,,,110 °C,,,,
COP(=S)(OC)SCN1C(=O)c2ccccc2C1=O,,,-6.31,72 °C,,,,2.91
O=C(Nc1ccc(F)cc1F)c1cccnc1Oc1cccc(C(F)(F)F)c1,,,-7.5,160 °C,-6.49,,,
CCCCCCCCOC(=O)CCCCCC,290 °C,,,-22.5 °C,,,,
COc1ccccc1C,171 °C,,,-34.1 °C,,,,
C1=CCNCC1,108 °C,,,-48 °C,,,,
CCCCCCCCCCCCCC(C)=O,294 °C,,,39.5 °C,,,,
COCC(C)C,58.6 °C,,2.32,,,,,
O=C(O)c1cncc(C(=O)O)c1,,,,324 °C,,,,
Cc1nc2ccccc2c(=O)n1-c1ccccc1Cl,,,,127 °C,,,,
Cc1cc(O)ccc1N=Nc1ccccc1,,,,109 °C,,,,
O=C(O)Cc1ccccc1,266 °C,,-2.42,76.5 °C,,,readily biodegradable,1.45
COC(=O)c1ccccc1C(=O)O,,,,83 °C,,,,
O=C1CC(c2ccccc2)Oc2ccccc21 (configuration not stated),,,,77 °C,,,,
CC(Cc1ccccc1)c1ccccc1 (configuration not stated),280 °C,,,52 °C,,,,

SMILES,boiling point,log10 biodegradation half-life (days),log10 vapour pressure (mmHg),melting point,log10 Henry constant (atm·m³/mol),log10 Koa,ready biodegradability,log10 Koc (L/kg)
NC(=O)OCC(O)c1ccccc1 (configuration not stated),,,,112 °C,,,,
C/C=C(\C)C(=O)OCC,156 °C,,,,,,,
O=C(c1cccs1)c1cccs1,326 °C,,,90 °C,,,,
C=C1C(=O)O[C@@H]2C[C@@H](C)[C@@H]3C=CC(=O)[C@@]3(C)[C@@H](O)[C@H]12,,,,168 °C,,,,
CC(C)C(=NO)C(C)C,181 °C,,,34 °C,,,,
CCSc1cccc(C)c1,219 °C,,,,,,,
COc1cc(OC)nc(Sc2cccc(Cl)c2C(=O)[O-])n1.[Na+],,,,248 °C,,,,
CCC1(c2ccc(N)cc2)CCC(=O)NC1=O (configuration not stated),,,,150 °C,,,,
CC1(C)OCCO1,92.5 °C,,,,,,,
Oc1ccc(C(c2ccc(O)cc2)(C(F)(F)F)C(F)(F)F)cc1,,,,162 °C,,,,
NC1CC1,50.5 °C,,,-35.4 °C,,,,
c1ccc2c(c1)Cc1ccccc1O2,311 °C,,,100 °C,,,,
Nc1ccc2ccccc2c1,300 °C,,-3.59,113 °C,-7.09,,readily biodegradable,
BrCCCCCCCCCCBr,,,,,,,not readily biodegradable,
Cc1cc(Cc2cc(C)cc(C(C)(C)C)c2O)c(O)c(C(C)(C)C)c1,,,,123 °C,,,not readily biodegradable,
CC(C)(Oc1ccc(C2CC2(Cl)Cl)cc1)C(=O)O (configuration not stated),,,,115 °C,,,,
CCO[Si](Cl)(OCC)OCC,156 °C,,,-51 °C,,,,
O=S(=O)(O)CCNC1CCCCC1,,,,320 °C,,,,
CC(C)NCC(O)c1ccc(NS(C)(=O)=O)cc1 (configuration not stated),,,,207 °C,,,,
CCCCCCCCCCCCCCCCN,322 °C,,-3.88,46.8 °C,,,,
CCP(=O)(c1ccccc1)c1ccccc1,,,,122 °C,,,,

SMILES,boiling point,log10 biodegradation half-life (days),log10 vapour pressure (mmHg),melting point,log10 Henry constant (atm·m³/mol),log10 Koa,ready biodegradability,log10 Koc (L/kg)
c1ccc2nnccc2c1,,,,38 °C,,,,
CCCCC(CC)COC(=O)c1ccccc1C(=O)OCC(CC)CCCC (configuration not stated),384 °C,,-6.85,-55 °C,,,not readily biodegradable,4.94
ClCCl,40 °C,,2.64,-95.1 °C,-2.49,2.27,not readily biodegradable,1.44
CC(=O)c1c(O)c(C)c(O)c(Cc2c(O)c3c(c(C(=O)/C=C/c4ccccc4)c2O)OC(C)(C)C=C3)c1O,,,,212 °C,,,,
BrCCOc1ccccc1,,,,39 °C,,,,
CSCc1ccccc1,210 °C,,,-30 °C,,,,
CCCB(CCC)CCC,159 °C,,,-56 °C,,,,
CC(CBr)c1ccccc1 (configuration not stated),188 °C,,,-59.3 °C,,,,
C=CCN(CC=C)c1c(C)cc(OC(=O)NC)cc1C,,,,67 °C,,,,
C#CCI,115 °C,,,,,,,
Cc1ccccc1Oc1ccccc1[N+](=O)[O-],,,,39.5 °C,,,,
CCCCCCCCCCCCCC(CCCCCCCCCCCC)CCCCCCCCCCCC,,,,13.7 °C,,,,
C=CC[Si](Cl)(Cl)CC=C,,,0.445,,,,,
CO[C@H](C(=O)c1ccccc1)c1ccccc1,,,,49.5 °C,,,,
O=C(O)C(Br)(Br)Br,,,,132 °C,-8.48,,,
C#CC(O)(C=CCl)CC (configuration not stated),174 °C,,-1,,,,,
CO[C@H]1[C@@H](O)[C@@H](C)O[C@H](O[C@H]2[C@H](Oc3cccc4c(O)c5c(=O)oc6ccc(C)c7c(=O)oc(c34)c5c67)O[C@H](C)[C@H](O)[C@@H]2O)[C@@H]1O,,,,185 °C,,,,
c1cncc(-c2cccnc2)c1,292 °C,,,68 °C,,,,
COP(=O)(OC)OC(Br)C(Cl)(Cl)Br (configuration not stated),,,-3.7,27 °C,,,,2.26
O=COCCOC=O,174 °C,,,,,,,
Cc1ccc(C=O)cc1,204 °C,,-0.602,-6 °C,,,readily biodegradable,
